Test results: patent publication US5194433A, “Antibiotic C-3 catechol-substituted cephalosporin compounds, compositions and method of use thereof” (Bristol-Myers Squibb Company, priority 1990, dated 1993)
Values after ≈ are worked out from the molar mass of the structure shown. Like-named read-outs stand apart in the source and are kept apart here.

Tests used:
Assay in all cases: in vitro antibacterial activity, two-fold serial agar dilution in Mueller-Hinton agar (MIC)
Format in all cases: cell-based
[1] = test system: Penicillin (PC)sensitive S. aureus; conditions: Staphylococcus aureus, Gp-Ia, 5 strains, read-out: Geometric mean of MIC
Source text: (§1) Table 3 lists the in vitro antibacterial activity of several representative compounds of the invention. The activity has been evaluated in terms of minimum inhibitory concentrations (MIC's) by a standard two-fold serial agar dilution method in Mueller-Hinton agar. The values are in geometric means of MIC's against the strains tested in each group. The activity of the known compound ceftazidime is also given for comparison.
GpIa: Penicillin (PC)sensitive S. aureus

PCresistant S. aureus = conditions: Staphylococcus aureus; Gp-Ib, 5 strains, penicillin-resistant S. aureus; read-out: Geometric mean of MIC
Source text: as §1
GpIb: PCresistant S. aureus

[2] = test system: Cephalothin (CET)sensitive E. coli (2 strains), Kl. pneumoniae (1) and Pr. mirabilis (2); conditions: Gn-Ia, 5 strains, read-out: Geometric mean of MIC
Source text: as §1
GnIa: Cephalothin (CET)sensitive E. coli (2 strains), Kl. pneumoniae (1)

[3] = test system: CETsensitive E. coli (3) and Kl. pneumoniae (2); conditions: Escherichia coli, read-out: Geometric mean of MIC
Source text: as §1
GnIb: CETsensitive E. coli (3) and Kl. pneumoniae (2)

[4] = test system: M. morganii (1), Ent. cloacae (2) and Ser. marcesens (2); conditions: Morganella morganii, read-out: Geometric mean of MIC
Source text: as §1
GnII: M. morganii (1), Ent. cloacae (2) and Ser. marcesens (2)

[5] = test system: Ceftazidimesensitive P. aeruginosa; conditions: Pseudomonas aeruginosa, read-out: Geometric mean of MIC
Source text: as §1
Pa (S): Ceftazidimesensitive P. aeruginosa

[6] = test system: Ceftazidimemoderately resistant P. aeruginosa; conditions: Pseudomonas aeruginosa, read-out: Geometric mean of MIC
Source text: as §1
Pa (MR): Ceftazidimemoderately resistant P. aeruginosa

[7] = test system: Ceftazidimehighly resistant P. aeruginosa; conditions: Pseudomonas aeruginosa; Pa (HR), 8 strains, ceftazidime highly resistant; read-out: Geometric mean of MIC
Source text: as §1
Pa (HR): Ceftazidimehighly resistant P. aeruginosa

P. cepacia = conditions: Burkholderia cepacia; Pc, 2 strains; read-out: Geometric mean of MIC
Source text: as §1

X. moltophilia = conditions: read-out: Geometric mean of MIC
Source text: as §1

[8] = Pa (S), 10 strains, ceftazidime-sensitive
[9] = Pa (MR), 8 strains, ceftazidime moderately resistant

Compound | MIC [1] | MIC (PCresistant S. aureus) | MIC [2] | MIC [3] | MIC ([4]; Gn-II, 5 strains) | MIC [5, 8] | MIC [6] | MIC [7] | MIC (P. cepacia) | MIC (X. moltophilia; Xm, 4 strains) | MIC [5] | MIC [6, 9] | MIC [4] | MIC (X. moltophilia)
CC(C)(O/N=C(\C(=O)NC1C(=O)N2C(C(=O)O)=C(Cn3cnc4cc(O)c(O)cc43)CS[C@H]12)c1csc(N)n1)C(=O)O (some centres unmarked) [Ia, 7-[(Z)-2-(2-Aminothiazol-4-yl)-2-(1-carboxy-1-methylethoxyimino)acetamido]-3-(5,6-dihydroxybenzimidazol-1-yl)methyl-3-cephem-4-carboxylic acid] | 50 µg/mL (≈ 81 µM) | 50 µg/mL (≈ 81 µM) | 0.61 µg/mL (≈ 0.988 µM) | 0.8 µg/mL (≈ 1.3 µM) | 1.6 µg/mL (≈ 2.59 µM) | 0.14 µg/mL (≈ 0.227 µM) | 0.47 µg/mL (≈ 0.761 µM) | 0.37 µg/mL (≈ 0.599 µM) | 12.5 µg/mL (≈ 20.2 µM) | 3.1 µg/mL (≈ 5.02 µM) | – | – | – | –
CC(C)(O/N=C(\C(=O)NC1C(=O)N2C(C(=O)O)=C(Cn3ccc4ccc(O)c(=O)c-4c3)CS[C@H]12)c1csc(N)n1)C(=O)O (some centres unmarked) [Ib, 7-[(Z)-2-(2-Aminothiazol-4-yl)-2-(1-carboxy-1-methylethoxyimino)acetamido]-3-(2,8-dihydro-7-hydroxy-8-oxo-isoquinolin-2-yl)methyl-3-cephem-4-carboxylic acid] | 100 µg/mL (≈ 159 µM) | > 100 µg/mL | 0.6 µg/mL (≈ 0.954 µM) | 0.8 µg/mL (≈ 1.27 µM) | 2.4 µg/mL (≈ 3.82 µM) | – | – | 2.6 µg/mL (≈ 4.14 µM) | 8.9 µg/mL (≈ 14.2 µM) | 12.5 µg/mL (≈ 19.9 µM) | 1.2 µg/mL (≈ 1.91 µM) | 2.9 µg/mL (≈ 4.61 µM) | – | –
CC(C)(O/N=C(\C(=O)NC1C(=O)N2C(C(=O)O)=C(Cn3cc4cc(O)c(=O)cc-4cn3)CS[C@H]12)c1csc(N)n1)C(=O)O (some centres unmarked) [Ic, 7-[(Z)-2-(2-Aminothiazol-4-yl)-2-(1-carboxy-1methylethoxyimino)acetamido]-3-(2,6-dihydro-7-hydroxy-6-oxophthalazin-2-yl)methyl-3-cephem-4-carboxylic acid] | 25 µg/mL (≈ 39.7 µM) | 33 µg/mL (≈ 52.4 µM) | 0.11 µg/mL (≈ 0.175 µM) | 0.033 µg/mL (≈ 0.0524 µM) | 0.4 µg/mL (≈ 0.635 µM) | 0.033 µg/mL (≈ 0.0524 µM) | – | 0.73 µg/mL (≈ 1.16 µM) | 0.57 µg/mL (≈ 0.905 µM) | 6.3 µg/mL (≈ 10 µM) | – | 0.37 µg/mL (≈ 0.588 µM) | – | –
C[n+]1cn(CC2=C(C(=O)[O-])N3C(=O)C(NC(=O)C(=NOC(C)(C)C(=O)O)c4csc(N)n4)C3SC2)c2cc(O)c(O)cc21 (centres unmarked) [Id, 7-[(Z)-2-(2-Aminothiazol-4-yl)-2-(1-carboxy-1-methylethoxyimino)acetamido]-3-(5,6-dihydroxy-3-methylbenzimidazol-3-io-1-yl)methyl-3-cephem-4-carboxylate] | 25 µg/mL (≈ 39.6 µM) | 33 µg/mL (≈ 52.2 µM) | 0.044 µg/mL (≈ 0.0697 µM) | 0.15 µg/mL (≈ 0.237 µM) | – | 0.057 µg/mL (≈ 0.0902 µM) | – | 0.18 µg/mL (≈ 0.285 µM) | 3.2 µg/mL (≈ 5.07 µM) | 0.8 µg/mL (≈ 1.27 µM) | – | 0.31 µg/mL (≈ 0.491 µM) | 0.15 µg/mL (≈ 0.237 µM) | –
CC(C)(O/N=C(\C(=O)N[C@@H]1C(=O)N2C(C(=O)[O-])=C(C[n+]3ccccc3)CS[C@H]12)c1csc(N)n1)C(=O)O [ceftazidime, reference compound] | 6.3 µg/mL (≈ 11.5 µM) | 12.5 µg/mL (≈ 22.9 µM) | 0.17 µg/mL (≈ 0.311 µM) | 0.3 µg/mL (≈ 0.549 µM) | – | – | – | 65 µg/mL (≈ 119 µM) | 18 µg/mL (≈ 32.9 µM) | – | 1.2 µg/mL (≈ 2.2 µM) | 14 µg/mL (≈ 25.6 µM) | 0.91 µg/mL (≈ 1.66 µM) | 71 µg/mL (≈ 130 µM)
